Test results reported in patent publication US9840510B1, “Pyrazolo[1,5-a]pyrimidinyl carboxamide compounds and their use in the treatment of medical disorders” (Lysosomal Therapeutics Inc., priority 2016, dated 2017).
In brackets after ≈: the same amount, converted by molar mass.

assay: Compound solubility in water; assay type: physicochemical

Structure (SMILES) | solubility
Cc1cc(-c2cc(Cl)ccn2)nc2c(C(=O)NC(C3CC3)C(F)(F)F)cnn12 (centres unmarked) [III-207] | 0.6 µg/mL (≈ 1.46 µM)
Cc1cc(-c2cscc2C#N)nc2c(C(=O)NC(C3CC3)C(F)(F)F)cnn12 (centres unmarked) [III-188] | 0.3 µg/mL (≈ 0.74 µM)
C#CC(C)(C)NC(=O)c1cnn2c(C)cc(-c3cccc(Cl)c3)nc12 [III-81] | 1.5 µg/mL (≈ 4.25 µM)
COc1cc(F)cc(-c2cc(C)n3ncc(C(=O)N[C@@H](C)C4CC4)c3n2)c1 [III-137] | 0.8 µg/mL (≈ 2.17 µM)
Cc1cc(-c2ccc(F)cc2C#N)nc2c(C(=O)NC(C)C(F)(F)F)cnn12 (centres unmarked) [III-154] | 0.7 µg/mL (≈ 1.79 µM)
Cc1cc(-c2ccccn2)n2ncc(C(=O)N[C@@H](C)C3CC3)c2n1 [III-25] | 22.5 µg/mL (≈ 70 µM)
Cc1cc(-c2ccco2)nc2c(C(=O)NC(C3CC3)C(F)(F)F)cnn12 (centres unmarked) [III-186] | 0.6 µg/mL (≈ 1.65 µM)
Cc1cc(-c2cccnc2F)nc2c(C(=O)NC(C3CC3)C(F)(F)F)cnn12 (centres unmarked) [III-85] | 1 µg/mL (≈ 2.54 µM)
Cc1cc(C)n2ncc(C(=O)N[C@@H](C)C3CC3)c2n1 [III-1] | 27 µg/mL (≈ 105 µM)
Cc1cc(C)n2ncc(C(=O)N[C@H]3CC[C@H](OCC(C)C)CC3)c2n1 [III-191] | 26.3 µg/mL (≈ 76.4 µM)
Cc1cc(-c2ccccc2)nc2c(C(=O)N[C@@H](C)C3CC3)cnn12 [III-136] | 5.1 µg/mL (≈ 15.9 µM)
Cc1cc(C)n2ncc(C(=O)NC3(C4CC4)CC3)c2n1 [III-12] | 38.4 µg/mL (≈ 142 µM)
Cc1cc(-c2ccc3scnc3c2)nc2c(C(=O)N[C@@H](C)C3CC3)cnn12 [III-192] | 0.2 µg/mL (≈ 0.53 µM)
Cc1cc(-c2ccncc2)n2ncc(C(=O)N[C@@H](C)C3CC3)c2n1 [III-29] | 18.9 µg/mL (≈ 58.8 µM)
Cc1cc(-c2ccccc2C#N)nc2c(C(=O)N[C@@H](C)C(F)(F)F)cnn12 [III-213] | 0.6 µg/mL (≈ 1.61 µM)
Cc1cc(-c2ccc(F)c(C#N)c2)nc2c(C(=O)NC(C3CC3)C(F)(F)F)cnn12 (centres unmarked) [III-158] | 0.3 µg/mL (≈ 0.719 µM)
Cc1cc(-c2ccc(F)nc2)nc2c(C(=O)NC(C3CC3)C(F)(F)F)cnn12 (centres unmarked) [III-84] | 0.8 µg/mL (≈ 2.03 µM)
Cc1cc(Cl)n2ncc(C(=O)NC(C)(C)C3CC3)c2n1 [III-14] | 10.7 µg/mL (≈ 36.5 µM)
Cc1cc(-c2cccc(-c3ncncn3)c2)nc2c(C(=O)NC(C3CC3)C(F)(F)F)cnn12 (centres unmarked) [III-177] | 0.2 µg/mL (≈ 0.441 µM)

Structure (SMILES) | solubility
CCc1cc(N2CCN(C(C)C)C2=O)nc2c(C(=O)NC(C)C(F)(F)F)cnn12 (centres unmarked) [III-226] | 5.9 µg/mL (≈ 14.3 µM)
Cc1cc(-c2cccnc2)n2ncc(C(=O)N[C@@H](C)C3CC3)c2n1 [III-27] | 18 µg/mL (≈ 56 µM)
Cc1cc(N2CCCC(F)(F)C2)nc2c(C(=O)N[C@@H](C3CC3)C(F)(F)F)cnn12 [III-95] | 1 µg/mL (≈ 2.4 µM)
Cc1cc(-c2ccc(F)cc2C#N)nc2c(C(=O)N[C@@H](C)C(F)(F)F)cnn12 [III-156] | 0.3 µg/mL (≈ 0.767 µM)
Cc1cc(-c2cccc(F)n2)nc2c(C(=O)N[C@H](C)C3CC3)cnn12 [III-135] | 1.5 µg/mL (≈ 4.42 µM)
COc1cccc(-c2cc(C)n3ncc(C(=O)NC(C)C(F)(F)F)c3n2)c1 (centres unmarked) [III-55] | 1.7 µg/mL (≈ 4.49 µM)
Cc1cc(-c2cccc3ocnc23)nc2c(C(=O)NC(C3CC3)C(F)(F)F)cnn12 (centres unmarked) [III-106] | 0.1 µg/mL (≈ 0.241 µM)
Cc1cc(-c2cncc(F)c2)nc2c(C(=O)N[C@@H](C3CC3)C(F)(F)F)cnn12 [III-127] | 2.5 µg/mL (≈ 6.36 µM)
Cc1cc(N2CCN(C(C)C)C2=O)nc2c(C(=O)NC(C)C(F)(F)F)cnn12 (centres unmarked) [III-227] | 9.4 µg/mL (≈ 23.6 µM)
Cc1cc(N2CCOCC2)nc2c(C(=O)NC(C)C3CC3)cnn12 (centres unmarked) [III-58] | 20.1 µg/mL (≈ 61 µM)
Cc1cc(-c2cccc(-c3ncc[nH]3)c2)nc2c(C(=O)NC(C3CC3)C(F)(F)F)cnn12 (centres unmarked) [III-102] | 0.4 µg/mL (≈ 0.908 µM)
Cc1cc(N2CCN(C(C)C)C2=O)nc2c(C(=O)NC(C3CC3)C(F)(F)F)cnn12 (centres unmarked) [III-225] | 19.3 µg/mL (≈ 45.5 µM)
Cc1cc(-c2ccc(F)cc2C#N)nc2c(C(=O)NC(C3CC3)C(F)(F)F)cnn12 (centres unmarked) [III-151] | 0.1 µg/mL (≈ 0.24 µM)
COc1cc(-c2cc(C)n3ncc(C(=O)NC(C4CC4)C(F)(F)F)c3n2)ccc1F (centres unmarked) [III-147] | 0.4 µg/mL (≈ 0.947 µM)
CCc1cc(-c2ccccn2)n2ncc(C(=O)NC(C)C3CC3)c2n1 (centres unmarked) [III-48] | 19.8 µg/mL (≈ 59 µM)
COCc1cc(-c2ccc(F)cc2)nc2c(C(=O)N[C@@H](C)C3CC3)cnn12 [III-46] | 3.4 µg/mL (≈ 9.23 µM)
Cc1cc(-c2ccccc2C#N)nc2c(C(=O)N[C@H](C)C(F)(F)F)cnn12 [III-212] | 0.7 µg/mL (≈ 1.87 µM)
C#CC(C)(C)NC(=O)c1cnn2c(C)cc(-c3cccc(OC4CC4)c3)nc12 [III-82] | 1.5 µg/mL (≈ 4.01 µM)
Cc1cc(-c2ccccn2)nc2c(C(=O)NC(C)(C)C3CC3)cnn12 [III-16] | 1.1 µg/mL (≈ 3.28 µM)

Structure (SMILES) | solubility
Cc1cc(-c2cccc(F)c2)nc2c(C(=O)NC(C)(C)C(F)(F)F)cnn12 [III-80] | 0.2 µg/mL (≈ 0.526 µM)
Cc1cc(-c2cccc(C#N)c2)nc2c(C(=O)NC(C3CC3)C(F)(F)F)cnn12 (centres unmarked) [III-72] | 0.1 µg/mL (≈ 0.25 µM)
COc1cc(F)ccc1-c1cc(C)n2ncc(C(=O)NC(C3CC3)C(F)(F)F)c2n1 (centres unmarked) [III-149] | 1.1 µg/mL (≈ 2.6 µM)
Cc1cc(-c2ccccn2)n2ncc(C(=O)NC(C)(C)C3CC3)c2n1 [III-17] | 2.2 µg/mL (≈ 6.56 µM)
Cc1cc(-c2cccc3ncoc23)nc2c(C(=O)NC(C)(C)C3CC3)cnn12 [III-223] | 0.2 µg/mL (≈ 0.533 µM)
Cc1cc(-c2cccnc2)n2ncc(C(=O)NC(C)(C)C3CC3)c2n1 [III-19] | 5.3 µg/mL (≈ 15.8 µM)
Cc1cc(-c2ccc(F)c(C(N)=O)c2)nc2c(C(=O)N[C@@H](C)C3CC3)cnn12 [III-160] | 1.1 µg/mL (≈ 2.88 µM)
COc1cc(-c2cc(C)n3ncc(C(=O)NC(C)C(F)(F)F)c3n2)ccc1F (centres unmarked) [III-148] | 1.2 µg/mL (≈ 3.03 µM)
Cc1cc(N2CCOCC2)nc2c(C(=O)NC(C)(C)C3CC3)cnn12 [III-59] | 10.3 µg/mL (≈ 30 µM)
Cc1cc(N2CCN(C(C)C)C2=O)nc2c(C(=O)NC(C)(C)C(F)(F)F)cnn12 [III-231] | 3 µg/mL (≈ 7.27 µM)
COCc1cc(-c2cccc(OC)c2)nc2c(C(=O)NC(C)(C)C3CC3)cnn12 [III-79] | 0.5 µg/mL (≈ 1.27 µM)
C#CC(C)(C)NC(=O)c1cnn2c(C)cc(-c3cccc(F)c3)nc12 [III-75] | 0.6 µg/mL (≈ 1.78 µM)
Cc1cc(-c2cc(C)n3ncc(C(=O)NC(C4CC4)C(F)(F)F)c3n2)sn1 (centres unmarked) [III-214] | 2.3 µg/mL (≈ 5.82 µM)
Cc1cc(C)n2ncc(C(=O)N[C@H](C3CC3)C(F)(F)F)c2n1 [III-10] | 15.3 µg/mL (≈ 49 µM)
Cc1cc(-c2ccc3scnc3c2)nc2c(C(=O)NC(C)C(F)(F)F)cnn12 (centres unmarked) [III-220] | 0.1 µg/mL (≈ 0.247 µM)
Cc1cc(-c2ccc(F)cc2)nc2c(C(=O)NC(C)C(F)(F)F)cnn12 (centres unmarked) [III-164] | 1.1 µg/mL (≈ 3 µM)
Cc1cc(N2CCCC(F)(F)C2)nc2c(C(=O)NC(C3CC3)C(F)(F)F)cnn12 (centres unmarked) [III-66] | 0.3 µg/mL (≈ 0.719 µM)
Cc1cc(N2CCN(CC(F)(F)F)C2=O)nc2c(C(=O)NC(C3CC3)C(F)(F)F)cnn12 (centres unmarked) [III-233] | 0.7 µg/mL (≈ 1.51 µM)

The next lines start with the values.

solubility | Structure (SMILES)
0.4 µg/mL (≈ 1.1 µM) | Cc1cc(-c2ccccn2)nc2c(C(=O)NC(C)(C)C(F)(F)F)cnn12 [III-408]
0.2 µg/mL (≈ 0.435 µM) | Cc1cc(N2C[C@H](c3ccccc3)OC2=O)nc2c(C(=O)NC(C3CC3)C(F)(F)F)cnn12 (some centres unmarked) [III-314]
1.7 µg/mL (≈ 4.25 µM) | Cc1cc(-c2cncc(C#N)c2)nc2c(C(=O)N[C@H](C3CC3)C(F)(F)F)cnn12 [III-363]
2.1 µg/mL (≈ 5.9 µM) | Cc1cc(-c2cncc(Cl)c2)nc2c(C(=O)N[C@@H](C)C3CC3)cnn12 [III-290]
1.1 µg/mL (≈ 2.75 µM) | Cc1cc(-c2cccnc2C#N)nc2c(C(=O)N[C@@H](C3CC3)C(F)(F)F)cnn12 [III-366]
0.2 µg/mL (≈ 0.568 µM) | Cc1cc(-c2cc(C)n3ncc(C(=O)N[C@H](C)C(F)(F)F)c3n2)co1 [III-338]
1.5 µg/mL (≈ 3.85 µM) | Cc1ccc(-c2cc(C)n3ncc(C(=O)N[C@H](C4CC4)C(F)(F)F)c3n2)cn1 [III-279]
0.3 µg/mL (≈ 0.811 µM) | Cc1cc(-c2cncc(Cl)c2)nc2c(C(=O)NC(C)(C)C3CC3)cnn12 [III-292]
5.9 µg/mL (≈ 15.4 µM) | Cc1cc(-c2cccc(Cl)n2)nc2c(C(=O)N[C@@H](C)C(F)(F)F)cnn12 [III-236]
0.1 µg/mL (≈ 0.23 µM) | COCOc1cccc(-c2cc(C)n3ncc(C(=O)N[C@@H](C4CC4)C(F)(F)F)c3n2)n1 [III-384]
2.3 µg/mL (≈ 6.06 µM) | COc1ccc(-c2cc(C)n3ncc(C(=O)NC(C)C(F)(F)F)c3n2)cn1 (centres unmarked) [III-271]
1.2 µg/mL (≈ 2.72 µM) | Cc1cc(-c2cccc(-n3cccn3)c2)nc2c(C(=O)NC(C3CC3)C(F)(F)F)cnn12 (centres unmarked) [III-415]
1.5 µg/mL (≈ 3.95 µM) | Cc1cc(-c2cc(C)n3ncc(C(=O)N[C@H](C4CC4)C(F)(F)F)c3n2)on1 [III-343]
0.2 µg/mL (≈ 0.501 µM) | C#Cc1cncc(-c2cc(C)n3ncc(C(=O)N[C@@H](C4CC4)C(F)(F)F)c3n2)c1 [III-383]
0.4 µg/mL (≈ 1.03 µM) | Cc1cc(-c2occc2C#N)nc2c(C(=O)NC(C3CC3)C(F)(F)F)cnn12 (centres unmarked) [III-250]
1.7 µg/mL (≈ 4.17 µM) | Cc1ccc(-c2cc(C)n3ncc(C(=O)N[C@H](C4CC4)C(F)(F)F)c3n2)c(F)n1 [III-372]
2.3 µg/mL (≈ 5.91 µM) | Cc1ccncc1-c1cc(C)n2ncc(C(=O)NC(C3CC3)C(F)(F)F)c2n1 (centres unmarked) [III-274]
2 µg/mL (≈ 5.61 µM) | Cc1cc(-c2ccc(F)o2)nc2c(C(=O)N[C@H](C)C(F)(F)F)cnn12 [III-334]
0.3 µg/mL (≈ 0.826 µM) | Cc1cc(-c2cc(F)ccc2C#N)nc2c(C(=O)N[C@@H](C)C3CC3)cnn12 [III-396]
15.1 µg/mL (≈ 45.7 µM) | CO[C@H]1CC[C@@H]([C@@H](C)NC(=O)c2cnn3c(C)cc(C)nc23)CC1 [III-404]
0.7 µg/mL (≈ 1.91 µM) | Cc1cc(-c2ccc(F)cc2)nc2c(C(=O)N[C@H](C)C(F)(F)F)cnn12 [III-359]
1.8 µg/mL (≈ 4.5 µM) | Cc1cc(-c2cccnc2C#N)nc2c(C(=O)N[C@H](C3CC3)C(F)(F)F)cnn12 [III-365]
32.8 µg/mL (≈ 77.3 µM) | Cc1cc(N2CCN(C(C)C)C2=O)nc2c(C(=O)N[C@H](C3CC3)C(F)(F)F)cnn12 [III-327]
3.9 µg/mL (≈ 11.5 µM) | Cc1nc(-c2cc(C)n3ncc(C(=O)NC(C)(C)C4CC4)c3n2)co1 [III-251]
0.3 µg/mL (≈ 0.736 µM) | Cc1ncc(-c2cc(C)n3ncc(C(=O)N[C@H](C4CC4)C(F)(F)F)c3n2)cc1F [III-380]
1.8 µg/mL (≈ 4.62 µM) | Cc1cncc(-c2cc(C)n3ncc(C(=O)N[C@H](C4CC4)C(F)(F)F)c3n2)c1 [III-276]
0.008 µg/mL (≈ 0.0198 µM) | Cc1cc(C#N)c(-c2cc(C)n3ncc(C(=O)NC(C4CC4)C(F)(F)F)c3n2)o1 (centres unmarked) [III-245]
0.05 µg/mL (≈ 0.122 µM) | Cc1cc(-c2cccc(Cl)n2)nc2c(C(=O)NC(C3CC3)C(F)(F)F)cnn12 (centres unmarked) [III-237]
0.5 µg/mL (≈ 1.11 µM) | Cc1cc(-c2ccc(N3CCOCC3)c(F)c2)nc2c(C(=O)NC(C)C(F)(F)F)cnn12 (centres unmarked) [III-299]
6.2 µg/mL (≈ 17.1 µM) | Cc1cncc(-c2cc(C)n3ncc(C(=O)NC(C)C(F)(F)F)c3n2)c1 (centres unmarked) [III-282]
